What was measured:
[1] = test system: high fat diet (HFD) rabbit model of metabolic-associated steatohepatitis (MASH); assay: HFD rabbit study, acute 5-day treatment: liver markers mRNA expression by RT-PCR; assay type: in vivo, New Zealand White rabbits; conditions: 30 mg/kg p.o. 5 days, week 12, mean ± SD, n = 3
Description: After 1 week of standard diet, animals (n = 12) were randomly assigned to the following groups (Table 1A): • Control rabbits continued to receive a regular diet (RD) for 12 weeks and were treated for 5 days (days 1–5, p.o.), during the last week before culling, with either vehicle; RD+1W Veh group] or GB1211 (30 mg/kg; RD + 1W 30 mg group); • Rabbits received a high fat diet (HFD) for 12 weeks (RD implemented with 0.5% cholesterol and 2.5% vegetable fat) and were treated for 5 days (days 1–5, p.o.), during the last week before culling, with either vehicle (HFD + 1W Veh group) or GB1211 (30 mg/kg; HFD + 1W 30 mg group).
TRIzol reagent (Life Technologies, Paisley, United Kingdom) and/or RNeasy Mini Kit (Qiagen, Hilden, Germany) were used to isolate total RNA from rabbit liver specimens. RNA concentration and quality were measured using a Nanodrop ND-1000 (Thermo Fisher Scientific) at 260 nm and 280 nm. The OD 260/280 absorbance ratios were between 2.0 and 2.1 for all samples, to confirm RNA integrity and purification. cDNA synthesis was carried out using the iScript™ cDNA Synthesis Kit (Bio-Rad Laboratories, Hercules, CA), with 100 ng of mRNA in 20 µL reaction volume in accordance with the following protocol: 5 min at 25°C, 20 min at 46°C and 5 min at 85°C, followed by refrigeration at 4°C.
Semi-quantitative real-time RT-PCR (qRT-PCR) amplification and detection was performed with SsoAdvanced™ universal SYBR® Supermix and a CFX96 Two-Color Real-Time PCR Detection System (both Bio-Rad Laboratories) with the following thermal cycler conditions: 40 cycles at 95°C for 15 s and 60°C for 1 min. Specific PCR primers for rabbit target genes were designed on sequences available at the National Center for Biotechnology Information GenBank (http://www.ncbi.nlm.nih.gov) or Ensemble Genome (http://www.ensembl.org).
The 18S ribosomal RNA subunit was quantified with a predeveloped assay (Hs99999901_s1, Life Technologies) and used as the housekeeping gene for the relative quantitation of the target genes based on the comparative threshold cycle (Ct) 2^−ΔΔCt method ([Livak and Schmittgen, 2001]), with some modifications. In detail, we used the vehicle control groups as the calibrator in each analysis, so that the calculations would provide the fold-change of the other groups relative to controls.

[2] = In vitro plasma protein binding in rabbit blood (rapid equilibrium dialysis, LC-MS/MS); assay type: in vitro ADME; conditions: nominal 0.2, 2 and 20 μg/mL, read-out: unbound free fraction
[3] = Plasma and liver selvigaltin concentrations after 4 weeks of treatment; assay type: in vivo; conditions: New Zealand White, rabbit, oral, HFD rabbits, 0.3, 1.0, 5.0 mg/kg, read-out: increased levels in liver tissue vs plasma
Description: After 1 week (W) of RD, the animals (n = 44) were randomly assigned to the following groups (Table 1B): • Control rabbits continued to receive a RD for 12 weeks and were treated with vehicle for 5 days a week (days 1–5, p.o.) during the last 4 weeks before culling (RD + 4W Veh group); • Rabbits received a HFD for 8 weeks and were culled (HFD 8W group); • Rabbits received a HFD for 12 weeks and were treated with vehicle for 5 days a week (days 1–5, p.o.) during the last 4 weeks before culling (HFD+4W Veh group); • Rabbits received a HFD for 12 weeks and were treated with GB1211 (0.3 mg/kg) for 5 days a week (days 1–5, p.o.) during the last 4 weeks before culling (HFD + 4W 0.3 mg group); • Rabbits received a HFD for 12 weeks and were treated with GB1211 (1.0 mg/kg) for 5 days a week (days 1–5, p.o.) during the last 4 weeks before culling (HFD + 4W 1.0 mg group); • Rabbits received a HFD for 12 weeks and were treated with GB1211 (5.0 mg/kg) for 5 days a week (days 1–5, p.o.) during the last 4 weeks before culling (HFD + 4W 5.0 mg group).
Liver homogenates were prepared by homogenisation of 200 mg liver tissue/ml water using a Fisherbrand™ Homogenizer 150 (Thermo Fisher Scientific, Waltham, MA). […]

## OC[C@H]1O[C@H](Sc2cncc(Br)c2)[C@H](O)[C@@H](n2cc(-c3cc(F)c(F)c(F)c3)nn2)[C@H]1O [selvigaltin]
[1]; HFD rabbits
  CD8 liver mRNA expression: 1.76 ± 0.20 fold-change vs. RD+1W Veh
  COL1A1 liver mRNA expression: 20.12 ± 15.24 fold-change vs. RD+1W Veh
  COL3A1 liver mRNA expression: 9.96 ± 7.51 fold-change vs. RD+1W Veh
  COX-2 liver mRNA expression: 8.81 ± 10.30 fold-change vs. RD+1W Veh
  EDN1 liver mRNA expression: 1.32 ± 0.21 fold-change vs. RD+1W Veh
  EDNRA liver mRNA expression: 7.73 ± 5.69 fold-change vs. RD+1W Veh
  EDNRB liver mRNA expression: 2.23 ± 0.95 fold-change vs. RD+1W Veh
  FN1 liver mRNA expression: 0.98 ± 0.14 fold-change vs. RD+1W Veh
  FOXP3 liver mRNA expression: 5.15 ± 2.78 fold-change vs. RD+1W Veh
  IGF-1 liver mRNA expression: 0.34 ± 0.08 fold-change vs. RD+1W Veh
  LGALS3 liver mRNA expression: 116.95 ± 77.56 fold-change vs. RD+1W Veh
  PAI-1 liver mRNA expression: 14.10 ± 16.47 fold-change vs. RD+1W Veh
  SNAI2 liver mRNA expression: 1.55 ± 0.26 fold-change vs. RD+1W Veh
  TBET liver mRNA expression: 0.74 ± 0.14 fold-change vs. RD+1W Veh
  TGFβ1 liver mRNA expression: 4.25 ± 2.06 fold-change vs. RD+1W Veh
  TGFβ3 liver mRNA expression: 2.97 ± 1.96 fold-change vs. RD+1W Veh
  αSMA liver mRNA expression: 5.77 ± 3.34 fold-change vs. RD+1W Veh
[1]; RD rabbits
  CD8 liver mRNA expression: 1.14 ± 0.81 fold-change vs. RD+1W Veh
  COL1A1 liver mRNA expression: 0.82 ± 0.40 fold-change vs. RD+1W Veh
  COL3A1 liver mRNA expression: 0.47 ± 0.21 fold-change vs. RD+1W Veh
  COX-2 liver mRNA expression: 2.52 ± 1.59 fold-change vs. RD+1W Veh
  EDN1 liver mRNA expression: 0.91 ± 0.20 fold-change vs. RD+1W Veh
  EDNRA liver mRNA expression: 0.89 ± 0.29 fold-change vs. RD+1W Veh
  EDNRB liver mRNA expression: 0.79 ± 0.19 fold-change vs. RD+1W Veh
  FN1 liver mRNA expression: 1.05 ± 0.12 fold-change vs. RD+1W Veh
  FOXP3 liver mRNA expression: 0.86 ± 0.12 fold-change vs. RD+1W Veh
  IGF-1 liver mRNA expression: 1.01 ± 0.19 fold-change vs. RD+1W Veh
  LGALS3 liver mRNA expression: 1.27 ± 1.04 fold-change vs. RD+1W Veh
  PAI-1 liver mRNA expression: 2.63 ± 1.79 fold-change vs. RD+1W Veh
  SNAI2 liver mRNA expression: 1.01 ± 0.31 fold-change vs. RD+1W Veh
  TBET liver mRNA expression: 0.75 ± 0.20 fold-change vs. RD+1W Veh
  TGFβ1 liver mRNA expression: 0.95 ± 0.31 fold-change vs. RD+1W Veh
  TGFβ3 liver mRNA expression: 0.70 ± 0.08 fold-change vs. RD+1W Veh
  αSMA liver mRNA expression: 0.96 ± 0.59 fold-change vs. RD+1W Veh
[2]
  fraction unbound: 0.141
[3]
  Kp at 4 weeks: 50 to 60

From paper PMC11322497 (Frontiers in Pharmacology, 2024)
